In patent US20230085307A1, “PYRIDAZINONE COMPOUND AND HERBICIDE” (NISSAN CHEMICAL CORPORATION, priority 2019, published 2023):

Legend:
late watergrass = assay: Test Example 2: herbicidal activity, application during weed generation under submerged conditions (Table 17, symbol A); type: in vivo, late watergrass (Echinochloa oryzicola); conditions: AAH 320 g/ha; application during weed generation, submerged conditions
Procedure, shortened: (§1)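 Mixed weed seedlings in alluvial soil under a 4 cm water layer, greenhouse-grown at 25–30° C. Compound given as a diluted emulsion into the floodwater at the 1–2 leaf stage; response graded after three weeks.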

Japanese bulrush = assay: Test Example 2: herbicidal activity, application during weed generation under submerged conditions (Table 17, symbol B); type: in vivo, Japanese bulrush (Schoenoplectus juncoides); conditions: AAH 320 g/ha; application during weed generation, submerged conditions
Procedure, shortened: as §1

oval-leafed pondweed = assay: Test Example 2: herbicidal activity, application during weed generation under submerged conditions (Table 17, symbol C); type: in vivo, oval-leafed pondweed (Monochoria vaginalis); conditions: AAH 320 g/ha; application during weed generation, submerged conditions
Procedure, shortened: as §1

barnyard grass [1] = assay: Test Example 3: herbicidal effect by foliage application, Wagner pot (Table 18, symbol H); type: in vivo, barnyard grass (Echinochloa crus-galli); conditions: 320 g/ha
Procedure, shortened: (§2)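 Plants were sown in alluvial soil held under 0.1–0.5 cm standing water and grown 14 days in a greenhouse at 25–30 °C. An emulsifiable formulation, water-diluted to the set dose, was then sprayed onto the foliage, and effects were scored three weeks later using previously defined criteria.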

Chinese sprangletop = assay: Test Example 3: herbicidal effect by foliage application, Wagner pot (Table 18, symbol D); type: in vivo, chinese sprangletop (Leptochloa chinensis); conditions: 320 g/ha
Procedure, shortened: as §2

rice flat sedge = assay: Test Example 3: herbicidal effect by foliage application, Wagner pot (Table 18, symbol E); type: in vivo, rice flat sedge (Cyperus iria); conditions: 320 g/ha
Procedure, shortened: as §2

southern crabgrass [2] = assay: Test Example 4: herbicidal effect by soil treatment (Table 19, symbol F); type: in vivo, southern crabgrass (Digitaria ciliaris); conditions: 320 g/ha
Procedure, shortened: (§3)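 Scoring uses the grading scale of an earlier test, three weeks post-application. Treatment consists of spraying a diluted emulsion formulation across the surface of sterilized diluvial soil in which seeds are buried near 1.5 cm deep; boxes are kept in a greenhouse between 25° C. and 30° C.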

green foxtail [3] = assay: Test Example 4: herbicidal effect by soil treatment (Table 19, symbol G); type: in vivo, green foxtail (Setaria viridis); conditions: 320 g/ha
Procedure, shortened: as §3

barnyard grass [4] = assay: Test Example 4: herbicidal effect by soil treatment (Table 19, symbol H); type: in vivo, barnyard grass (Echinochloa crus-galli); conditions: 320 g/ha
Procedure, shortened: as §3

wild oat [5] = assay: Test Example 4: herbicidal effect by soil treatment (Table 19, symbol I); type: in vivo, wild oat (Avena fatua); conditions: 320 g/ha
Procedure, shortened: as §3

blackgrass [6] = assay: Test Example 4: herbicidal effect by soil treatment (Table 19, symbol J); type: in vivo, blackgrass (Alopecurus myosuroides); conditions: 320 g/ha
Procedure, shortened: as §3

Italian ryegrass [7] = assay: Test Example 4: herbicidal effect by soil treatment (Table 19, symbol K); type: in vivo, Italian ryegrass (Lolium multiflorum); conditions: 320 g/ha
Procedure, shortened: as §3

windgrass [8] = assay: Test Example 4: herbicidal effect by soil treatment (Table 19, symbol L); type: in vivo, windgrass (Apera spica-venti); conditions: 320 g/ha
Procedure, shortened: as §3

velvetleaf [9] = assay: Test Example 4: herbicidal effect by soil treatment (Table 19, symbol M); type: in vivo, velvetleaf (Abutilon theophrasti); conditions: 320 g/ha
Procedure, shortened: as §3

redroot pigweed [10] = assay: Test Example 4: herbicidal effect by soil treatment (Table 19, symbol N); type: in vivo, redroot pigweed (Amaranthus retroflexus); conditions: 320 g/ha
Procedure, shortened: as §3

lambsquarters [11] = assay: Test Example 4: herbicidal effect by soil treatment (Table 19, symbol O); type: in vivo, lambsquarters (Chenopodium album); conditions: 320 g/ha
Procedure, shortened: as §3

chickweed [12] = assay: Test Example 4: herbicidal effect by soil treatment (Table 19, symbol P); type: in vivo, common chickweed (Stellaria media); conditions: 320 g/ha
Procedure, shortened: as §3

false cleavers [13] = assay: Test Example 4: herbicidal effect by soil treatment (Table 19, symbol Q); type: in vivo, false cleavers (Galium spurium); conditions: 320 g/ha
Procedure, shortened: as §3

persian speedwell [14] = assay: Test Example 4: herbicidal effect by soil treatment (Table 19, symbol R); type: in vivo, Persian speedwell (Veronica persica); conditions: 320 g/ha
Procedure, shortened: as §3

southern crabgrass [15] = assay: Test Example 5: herbicidal effect by foliage application, plastic box (Table 20, symbol F); type: in vivo, southern crabgrass (Digitaria ciliaris); conditions: foliage application, 320 g/ha, evaluated three weeks after application
Procedure, shortened: (§4)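 Post-emergence foliar test in sterilized diluvial soil. Compound applied as water-diluted emulsion at a predetermined rate to 14-day-old plants; evaluation at three weeks.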

green foxtail [16] = assay: Test Example 5: herbicidal effect by foliage application, plastic box (Table 20, symbol G); type: in vivo, green foxtail (Setaria viridis); conditions: foliage application, 320 g/ha, evaluated three weeks after application
Procedure, shortened: as §4

barnyard grass [17] = assay: Test Example 5: herbicidal effect by foliage application, plastic box (Table 20, symbol H); type: in vivo, barnyard grass (Echinochloa crus-galli); conditions: foliage application, 320 g/ha, evaluated three weeks after application
Procedure, shortened: as §4

wild oat [18] = assay: Test Example 5: herbicidal effect by foliage application, plastic box (Table 20, symbol I); type: in vivo, wild oat (Avena fatua); conditions: foliage application, 320 g/ha, evaluated three weeks after application
Procedure, shortened: as §4

blackgrass [19] = assay: Test Example 5: herbicidal effect by foliage application, plastic box (Table 20, symbol J); type: in vivo, blackgrass (Alopecurus myosuroides); conditions: foliage application, 320 g/ha, evaluated three weeks after application
Procedure, shortened: as §4

Italian ryegrass [20] = assay: Test Example 5: herbicidal effect by foliage application, plastic box (Table 20, symbol K); type: in vivo, Italian ryegrass (Lolium multiflorum); conditions: foliage application, 320 g/ha, evaluated three weeks after application
Procedure, shortened: as §4

windgrass [21] = assay: Test Example 5: herbicidal effect by foliage application, plastic box (Table 20, symbol L); type: in vivo, windgrass (Apera spica-venti); conditions: foliage application, 320 g/ha, evaluated three weeks after application
Procedure, shortened: as §4

velvetleaf [22] = assay: Test Example 5: herbicidal effect by foliage application, plastic box (Table 20, symbol M); type: in vivo, velvetleaf (Abutilon theophrasti); conditions: foliage application, 320 g/ha, evaluated three weeks after application
Procedure, shortened: as §4

redroot pigweed [23] = assay: Test Example 5: herbicidal effect by foliage application, plastic box (Table 20, symbol N); type: in vivo, redroot pigweed (Amaranthus retroflexus); conditions: foliage application, 320 g/ha, evaluated three weeks after application
Procedure, shortened: as §4

lambsquarters [24] = assay: Test Example 5: herbicidal effect by foliage application, plastic box (Table 20, symbol O); type: in vivo, lambsquarters (Chenopodium album); conditions: foliage application, 320 g/ha, evaluated three weeks after application
Procedure, shortened: as §4

chickweed [25] = assay: Test Example 5: herbicidal effect by foliage application, plastic box (Table 20, symbol P); type: in vivo, common chickweed (Stellaria media); conditions: foliage application, 320 g/ha, evaluated three weeks after application
Procedure, shortened: as §4

false cleavers [26] = assay: Test Example 5: herbicidal effect by foliage application, plastic box (Table 20, symbol Q); type: in vivo, false cleavers (Galium spurium); conditions: foliage application, 320 g/ha, evaluated three weeks after application
Procedure, shortened: as §4

persian speedwell [27] = assay: Test Example 5: herbicidal effect by foliage application, plastic box (Table 20, symbol R); type: in vivo, Persian speedwell (Veronica persica); conditions: foliage application, 320 g/ha, evaluated three weeks after application
Procedure, shortened: as §4

CCCC(=O)Oc1c(C)nn(C)c(=O)c1-c1c(-c2ccc3c(c2)OCCO3)sc2ccc(F)cc12 [2-093]
herbicidal effect rating, A: late watergrass (late watergrass): 3 (Herbicidal rate of 40% or more and less than 70%) | herbicidal effect rating, B: Japanese bulrush (Japanese bulrush): 5 (Herbicidal rate of 90% or more (almost completely withered)) | herbicidal effect rating, C: oval-leafed pondweed (oval-leafed pondweed): 5 (Herbicidal rate of 90% or more (almost completely withered)) | herbicidal effect on H (barnyard grass), rating 0-5 (barnyard grass [1]): 5 (Herbicidal rate of 90% or more (almost completely withered)) | herbicidal effect on D (Chinese sprangletop), rating 0-5 (Chinese sprangletop): 2 (Herbicidal rate of 20% or more and less than 40%) | herbicidal effect on E (rice flat sedge), rating 0-5 (rice flat sedge): 5 (Herbicidal rate of 90% or more (almost completely withered)) | herbicidal effect rating, F: southern crabgrass (southern crabgrass [2]): 3 (Herbicidal rate of 40% or more and less than 70%) | herbicidal effect rating, G: green foxtail (green foxtail [3]): 3 (Herbicidal rate of 40% or more and less than 70%) | herbicidal effect rating, H: barnyard grass (barnyard grass [4]): 3 (Herbicidal rate of 40% or more and less than 70%) | herbicidal effect rating, I: wild oat (wild oat [5]): 0 (Herbicidal rate of 5% or less (almost no effect)) | herbicidal effect rating, J: blackgrass (blackgrass [6]): 0 (Herbicidal rate of 5% or less (almost no effect)) | herbicidal effect rating, K: Italian ryegrass (Italian ryegrass [7]): 0 (Herbicidal rate of 5% or less (almost no effect)) | herbicidal effect rating, L: windgrass (windgrass [8]): 0 (Herbicidal rate of 5% or less (almost no effect)) | herbicidal effect rating, M: velvetleaf (velvetleaf [9]): 5 (Herbicidal rate of 90% or more (almost completely withered)) | herbicidal effect rating, N: redroot pigweed (redroot pigweed [10]): 5 (Herbicidal rate of 90% or more (almost completely withered)) | herbicidal effect rating, O: lambsquarters (lambsquarters [11]): 5 (Herbicidal rate of 90% or more (almost completely withered)) | herbicidal effect rating, P: chickweed (chickweed [12]): 4 (Herbicidal rate of 70% or more and less than 90%) | herbicidal effect rating, Q: false cleavers (false cleavers [13]): 3 (Herbicidal rate of 40% or more and less than 70%) | herbicidal effect rating, R: persian speedwell (persian speedwell [14]): 5 (Herbicidal rate of 90% or more (almost completely withered)) | herbicidal effect on F: southern crabgrass (southern crabgrass [15]): 3 (Herbicidal rate of 40% or more and less than 70%) | herbicidal effect on G: green foxtail (green foxtail [16]): 3 (Herbicidal rate of 40% or more and less than 70%) | herbicidal effect on H: barnyard grass (barnyard grass [17]): 3 (Herbicidal rate of 40% or more and less than 70%) | herbicidal effect on I: wild oat (wild oat [18]): 0 (Herbicidal rate of 5% or less (almost no effect)) | herbicidal effect on J: blackgrass (blackgrass [19]): 0 (Herbicidal rate of 5% or less (almost no effect)) | herbicidal effect on K: Italian ryegrass (Italian ryegrass [20]): 0 (Herbicidal rate of 5% or less (almost no effect)) | herbicidal effect on L: windgrass (windgrass [21]): 0 (Herbicidal rate of 5% or less (almost no effect)) | herbicidal effect on M: velvetleaf (velvetleaf [22]): 5 (Herbicidal rate of 90% or more (almost completely withered)) | herbicidal effect on N: redroot pigweed (redroot pigweed [23]): 5 (Herbicidal rate of 90% or more (almost completely withered)) | herbicidal effect on O: lambsquarters (lambsquarters [24]): 5 (Herbicidal rate of 90% or more (almost completely withered)) | herbicidal effect on P: chickweed (chickweed [25]): 5 (Herbicidal rate of 90% or more (almost completely withered)) | herbicidal effect on Q: false cleavers (false cleavers [26]): 4 (Herbicidal rate of 70% or more and less than 90%) | herbicidal effect on R: persian speedwell (persian speedwell [27]): 5 (Herbicidal rate of 90% or more (almost completely withered))
